Laboratory results from patent US20240101546A1, “HETEROARYL-ACETYLENES, PHARMACEUTICAL COMPOSITIONS THEREOF, AND THEIR THERAPEUTIC APPLICATIONS” (Eubulus Biotherapeutics Inc., priority 2020, published 2024).
pEC50: −log10 of the molar value.

system: lung cancer cell line NCI-H82; experiment: Cell proliferation assay, NCI-H82 (CELL-TITER GLO); format: cell-based; details: Homo sapiens, NCI-H82, 72 h, NCI-H82 cells, 72 h incubation, cell viability by CELL-TITER GLO, top concentration 1 μM; read-out: EC50, Inhibition of NCl-H82 Cell Proliferation
Outline: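 NCI-H82 cells, 1,000 per well in RPMI1640, were treated after overnight plating with a 3-fold dilution series from 1 μM. Viability read by CellTiter-Glo luminescence after 72 h. EC50 derived from the curves.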

| pEC50 | SMILES |
| --- | --- |
| ≥ 6.70 | C#Cc1nc(NC(=O)N[C@@H](COC(C)=O)c2ccc(-c3cccc4ncsc34)cc2)cs1 [Compound A201, (R)-2-(4-(Benzo[d]thiazol-7-yl)phenyl)-2-(3-(2-ethynylthiazol-4-yl)ureido)ethyl acetate] |
| ≥ 6.70 | C#Cc1nc(NC(=O)N[C@@H](COC(=O)C(C)(C)C)c2ccc(-c3cccc4ncsc34)cc2)cs1 [Compound A202, (R)-2-(4-(Benzo[d]thiazol-7-yl)phenyl)-2-(3-(2-ethynylthiazol-4-yl)ureido)ethyl pivalate] |
| ≥ 6.70 | C#Cc1nc(NC(=O)N[C@H](c2ccc(-c3cccc4ncsc34)cc2)C(C)(C)O)cs1 [Compound A203, (R)-1-(1-(4-(Benzo[d]thiazol-7-yl)phenyl)-2-hydroxy-2-methylpropyl)-3-(2-ethynylthiazol-4-yl)urea] |
| ≥ 6.70 | C#Cc1nc(NC(=O)N[C@H](c2ccc(-c3cccc4ncsc34)cc2)C(C)O)cs1 (stereo partly drawn) [Compound A204, 1-((1R)-1-(4-(Benzo[d]thiazol-7-yl)phenyl)-2-hydroxypropyl)-3-(2-ethynyl-thiazol-4-yl)urea] |
| ≥ 6.70 | C#Cc1nc(NC(=O)N(CCC#N)Cc2ccc(-c3cccc4ncsc34)cc2)cs1 [Compound A205, 1-(4-(Benzo[d]thiazol-7-yl)benzyl)-1-(2-cyanoethyl)-3-(2-ethynylthiazol-4-yl)urea] |
| ≥ 6.70 | C#Cc1nc(NC(=O)N(CCO)Cc2ccc(-c3cccc4ncsc34)cc2)cs1 [Compound A206, 1-(4-(Benzo[d]thiazol-7-yl)benzyl)-3-(2-ethynylthiazol-4-yl)-1-(2-hydroxyethyl)-urea] |
| ≥ 6.70 | C#Cc1nc(NC(=O)N(CCS(C)(=O)=O)Cc2ccc(-c3cccc4ncsc34)cc2)cs1 [Compound A207, 1-(4-(Benzo[d]thiazol-7-yl)benzyl)-3-(2-ethynylthiazol-4-yl)-1-(2-(methyl-sulfonyl)ethyl)urea] |
| ≥ 6.70 | C#Cc1nc(NC(=O)N(CC#N)Cc2ccc(-c3cccc4ncsc34)cc2)cs1 [Compound A208, 1-(4-(Benzo[d]thiazol-7-yl)benzyl)-1-(cyanomethyl)-3-(2-ethynylthiazol-4-yl)urea] |
| ≥ 6.70 | C#Cc1nc(NC(=O)NC(C(N)=O)c2ccc(-c3cccc4ncsc34)cc2)cs1 (stereo not drawn) [Compound A209, 2-(4-(Benzo[d]thiazol-7-yl)phenyl)-2-(3-(2-ethynylthiazol-4-yl)ureido)acetamide] |
| ≥ 6.70 | C#Cc1nc(NC(=O)N[C@@H](C(N)=O)c2ccc(-c3cccc4ncsc34)cc2)cs1 [Compound A210, (R)-2-(4-(Benzo[d]thiazol-7-yl)phenyl)-2-(3-(2-ethynylthiazol-4-yl)ureido)-acetamide] |
| ≥ 6.70 | C#Cc1nc(NC(=O)N[C@H](C(N)=O)c2ccc(-c3cccc4ncsc34)cc2)cs1 [Compound A211, (S)-2-(4-(Benzo[d]thiazol-7-yl)phenyl)-2-(3-(2-ethynylthiazol-4-yl)ureido)-acetamide] |
| ≥ 6.70 | C#Cc1nc(NC(=O)N[C@@H](C(N)=O)c2ccc(-c3cccc(C4(C#N)CC4)c3)cc2)cs1 [Compound A212, (R)-2-(3′-(1-Cyanocyclopropyl)-[1,1′-biphenyl]-4-yl)-2-(3-(2-ethynylthiazol-4-yl)ureido)acetamide] |
| ≥ 6.70 | C#Cc1nc(NC(=O)N[C@@H](C(=O)NC)c2ccc(-c3cccc4nc[nH]c(=O)c34)cc2)cs1 [Compound A213, (R)-2-(3-(2-Ethynylthiazol-4-yl)ureido)-N-methyl-2-(4-(4-oxo-3,4-dihydro-quinazolin-5-yl)phenyl)acetamide] |
| ≥ 6.70 | C#Cc1nc(NC(=O)NC(C(=O)NC)c2ccc(-c3cccc4ncsc34)cc2)cs1 (stereo not drawn) [Compound A214, 2-(4-(Benzo[d]thiazol-7-yl)phenyl)-2-(3-(2-ethynylthiazol-4-yl)ureido)-N-methylacetamide] |
| ≥ 6.70 | C#Cc1nc(NC(=O)N[C@@H](C(=O)NC)c2ccc(-c3cccc4ncsc34)cc2)cs1 [Compound A215, (R)-2-(4-(Benzo[d]thiazol-7-yl)phenyl)-2-(3-(2-ethynylthiazol-4-yl)ureido)-N-methylacetamide] |
